The source of these data is patent publication US5264593A, “Cholesterol lowering compounds” (Merck & Co., Inc., priority 1993, dated 1993).

Structures are written as SMILES.

For this experiment, the target named is T1, squalene synthetase (human HepG2 cell enzyme) (Homo sapiens, UniProt P37268).
T1 construct: SOURCE: HEPG2 CELL LINE (Liver, hepatoblastoma, Human) ATCC No. HB 8065; endogenous in cells; host or cells: HepG2 (ATCC HB 8065), sonicated cell extract
T1 sequence (P37268 1-417): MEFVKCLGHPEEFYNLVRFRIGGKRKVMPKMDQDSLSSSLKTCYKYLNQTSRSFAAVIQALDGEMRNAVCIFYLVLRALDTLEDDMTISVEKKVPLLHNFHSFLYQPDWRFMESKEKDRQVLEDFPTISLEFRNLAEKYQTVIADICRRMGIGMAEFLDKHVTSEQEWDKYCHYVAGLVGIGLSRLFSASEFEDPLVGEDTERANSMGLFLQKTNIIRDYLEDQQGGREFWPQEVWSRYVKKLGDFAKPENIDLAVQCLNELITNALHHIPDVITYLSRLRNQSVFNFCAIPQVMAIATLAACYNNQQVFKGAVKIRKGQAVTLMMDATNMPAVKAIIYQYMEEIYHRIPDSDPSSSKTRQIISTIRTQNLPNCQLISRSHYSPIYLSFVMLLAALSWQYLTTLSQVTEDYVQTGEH
Briefly: Squalene Synthase Assay (human HepG2 cell enzyme, 3H-farnesyl pyrophosphate substrate). The conditions noted are these: 3 μM 3H-farnesyl pyrophosphate, pH 7.5, 30° C., 20 minutes. It is filed as biochemical. The protocol:
The intrinsic squalene synthetase inhibitory activity of the compounds of this invention was measured by the standard in vitro protocol described below:
PREPARATION OF HUMAN HepG2 cell ENZYME
1. SOURCE: HEPG2 CELL LINE (Liver, hepatoblastoma, Human) ATCC No. HB 8065
2. CELL GROWTH AND MAINTENANCE
Culture Medium: Minimum essential medium (MEM) with non-essential amino acids, sodium pyruvate, and 10% fetal bovine serum. The medium was changed twice weekly. […] The growth medium is prepared as listed below.
Subculture Procedure: Remove medium, wash with PBS, add fresh trypsin (0.25%)-EDTA (0.02%) with Hank's Balanced Salt solution and let flask stand for a minute and remove the trypsin solution. Incubate flask at 37° C. until cells detached. Add fresh medium, disperse and dispense cells into new flasks. Subcultivation ratio: 1:6.
PREPARATION of Delipidated Serum: Fetal calf serum (100 ml) and CAB-O-Sil (2 grams) stir overnight at 4° C. and centrifuge at 16,000 rpm for 5 hrs. […]
For each reaction, 55 μl of buffer mixture was taken with 5 μl of an inhibitor solution in DMSO and 10 μl of diluted enzyme (1 to 250 as described in the enzyme preparation, the final protein concentration of enzyme in the assay is 2 μg per ml.). […] 150 μl of heptane layer was then removed into a 96 deep well plate and mixed with 150 μl of scintillation fluid and the radioactivity was determined by liquid scintillation counting. […]

Consider `C=C(CCC12OCC(OC(C)=O)C(C(=O)O)(O1)C(OC(=O)/C=C/C(C)CC(C)CC)C2O)C(OC(C)=O)C(C)Cc1ccccc1` (stereo not drawn) [Example 1, 4-Acetate of 3,4-decarboxy-4-epi-Zaragozic Acid A], for which the IC50 is 2.95 nM.

Turning to `C=C(CCC12OCC(OC(=O)C(C)(C)C)C(C(=O)O)(O1)C(OC(=O)/C=C/C(C)CC(C)CC)C2O)C(OC(C)=O)C(C)Cc1ccccc1` (stereo not drawn) [Example 2, 4-Trimethylacetate of 3,4-decarboxy-4-epi-Zaragozic Acid A], 58.2 nM corresponded to half-maximal inhibition (IC50).
